Experimental data from US4931463A, “Oxetanones” (Hoffmann-La Roche Inc., priority 1987, dated 1990).
Like-named read-outs stand apart in the source and are kept apart here.

What was measured:
pig pancreas lipase = target: T1, pig pancreas lipase (Sus scrofa, UniProt P00591); assay: Inhibition of pancreas lipase, titrimetric registration of oleic acid liberated in the cleavage of triolein; type: biochemical
T1 sequence (P00591 1-450): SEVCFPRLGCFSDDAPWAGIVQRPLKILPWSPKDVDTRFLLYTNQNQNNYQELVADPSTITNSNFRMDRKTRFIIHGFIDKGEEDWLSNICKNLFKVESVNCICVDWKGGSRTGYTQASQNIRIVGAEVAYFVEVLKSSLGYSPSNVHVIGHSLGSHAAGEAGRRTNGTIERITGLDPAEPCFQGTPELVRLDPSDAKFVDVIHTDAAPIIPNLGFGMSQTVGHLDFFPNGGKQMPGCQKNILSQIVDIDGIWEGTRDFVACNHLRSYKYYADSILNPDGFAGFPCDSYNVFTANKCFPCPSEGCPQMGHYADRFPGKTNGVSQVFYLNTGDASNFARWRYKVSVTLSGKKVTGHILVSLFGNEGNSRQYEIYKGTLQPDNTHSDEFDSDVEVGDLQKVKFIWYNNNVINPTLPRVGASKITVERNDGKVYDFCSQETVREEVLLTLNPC
Procedure: To an emulsion which contains 1 mM of taurodeoxycholate, 9 mM of taurocholeate, 0.1 mM of cholesterol, 1 mM of egg lecithin, 15 mg/ml of BSA, 2 mM of Tris HCl, 100 mM of sodium chloride, 1 mM of calcium chloride and triolein as the substrate was added the compound of formula I dissolved in ethanol or dimethyl sulfoxide (10% of the emulsion volume) and the reaction was started by the addition of 100 μg (175 U) of pig pancreas lipase. The pH was held at 8 during the reaction by the addition of sodium hydroxide solution. The IC50 was calculated from the consumption of sodium hydroxide solution determined during 10 minutes. The IC50 was that concentration at which the lipase activity was inhibited to half of the maximum.

mice = assay: Acute toxicity after single oral administration to mice; type: in vivo
[1] = pig pancreas lipase 100 μg (175 U), triolein substrate, pH 8, 10 minutes, concentration at which lipase activity was inhibited to half of the maximum, read-out: IC50 (converted)

SMILES | IC50 (pig pancreas lipase; [1]) | Toxicity (dose of the compound at which the animal survives) (mice) | IC50 (pig pancreas lipase)
CCCCCCCCCCC[C@H](O)C[C@@H]1OC(=O)[C@H]1CCCCCC (relative stereo) [Example 9 F.2., rac-trans-3-hexyl-4-(2-hydroxytridecyl)-2-oxetanone(2S,3S,4S:2R,3R,4R)] | 240000 nM | – | –
CCCCCC[C@@H]1C(=O)O[C@H]1CC(CCCC)OC(=O)[C@H](CC(C)C)NC=O (mixture of isomers) [Example 5, N-formyl-L-leucine 1-[(trans-3-hexyl-4-oxo-2-oxetanyl]-methyl]pentyl ester] | 503 nM | – | –
CCCCCCCCCCCCCCCCC[C@@H](C[C@@H]1OC(=O)[C@H]1CC)OC(=O)[C@H](CC(C)C)NC=O [Example 4, 1, N-formyl-(S)-leucine (S)-1[[(2S,3S)-3-ethyl-4-oxo-2-oxetanyl]methyl]octadecyl ester] | 210 nM | – | –
CCCCCCCCCCCC(C[C@@H]1OC(=O)[C@H]1CCCCCC)OC(=O)[C@@H](N)CC(C)C (relative stereo) [Example 7, leucine 1-[(trans-3-hexyl-4-oxo-2-oxetanyl)methyl]dodecyl ester] | 32100 nM | – | –
CCCCC/C=C\C/C=C\CCCCCCC[C@@H](C[C@@H]1OC(=O)[C@H]1CC)OC(=O)[C@H](CC(C)C)NC=O [Example 2, 21] | 38.5 nM | – | –
CC[C@@H]1C(=O)O[C@H]1C[C@@H](OC(=O)[C@H](CC(C)C)NC=O)c1ccc(Oc2ccccc2)cc1 [Example 2, 25a, N-formyl-(S)-leucine (R)-α-[[(2S,3S)-3-ethyl-4-oxo-2-oxetanyl]methyl]-p-phenoxybenzyl ester] | 22 nM | – | –
CCCCCCCCCCCC(C[C@@H]1OC(=O)[C@H]1CC)OC(=O)[C@H](CC(C)C)NC=O (single isomer, unassigned) [Example 2, 13a, N-formyl-L-leucine 1-[(trans-3-ethyl-4-oxo-2-oxetanyl)methyl]dodecyl ester] | 15.9 nM | – | –
CCCCCCCC/C=C\CCCCCCC[C@@H](C[C@@H]1OC(=O)[C@H]1CC)OC(=O)[C@H](CC(C)C)NC=O (single isomer, unassigned) [Example 2, 23a] | – | 2000 mg/kg p.o. | 67.1 nM
C=CCC[C@@H](C[C@@H]1OC(=O)[C@H]1CCCCCCCCCC)OC(=O)[C@H](CC(C)C)NC=O [Example 2, 34, N-formyl-L-leucine (S)-1-[[(2S,3S)-3-decyl-4-oxo-2-oxetanyl]methyl]-4-pentenyl ester] | – | 4000 mg/kg p.o. | 288 nM
CCCCCC[C@@H]1C(=O)O[C@H]1C[C@H](CCCC)OC(=O)[C@H](Cc1ccccc1)NC=O [Example 6, 2, N-formyl-L-phenylalanine (S)-1-[[(2S,3S)-3-hexyl-4-oxo-2-oxetanyl]methyl]-4-pentyl ester] | – | – | 2320 nM
C=CC[C@@H]1C(=O)O[C@H]1CC(CCCCCCCCCCC)OC(=O)[C@H](CC(C)C)NC=O (mixture of isomers) [Example 2, 14, N-formyl-L-leucine 1-[(trans-3-allyl-4-oxo-2-oxetanyl)methyl]dodecyl ester] | – | 5000 mg/kg p.o. | 33.2 nM
